Reference: patent US20230085307A1, “PYRIDAZINONE COMPOUND AND HERBICIDE” (NISSAN CHEMICAL CORPORATION, priority 2019, published 2023)

What was measured:
[1] = system: wild oat; assay: Test Example 5: herbicidal effect by foliage application, plastic box (Table 20, symbol I); assay type: in vivo, wild oat (Avena fatua); conditions: foliage application, 320 g/ha, three weeks after application
Outline: (§1)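 Plants sown in sterilized diluvial soil and grown 14 days in a greenhouse at 25° C to 30° C, then sprayed on the foliage with the compound's emulsion diluted in water to a predetermined herbicide amount. Injury to weeds and crops scored three weeks after application on a visual rating scale.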

[2] = system: blackgrass; assay: Test Example 4: herbicidal effect by soil treatment (Table 19, symbol J); assay type: in vivo, blackgrass (Alopecurus myosuroides); conditions: amount of applied herbicide 320 g/ha
Outline: (§2)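 Three weeks of greenhouse growth at 25° C. to 30° C. followed a uniform surface spray of water-diluted emulsion at a predetermined herbicide amount. Seeds had been sown beforehand under about 1.5 cm of sterilized diluvial soil. Grading followed criteria set out in an earlier test.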

[3] = system: Chinese sprangletop; assay: Test Example 3: herbicidal effect by foliage application, Wagner pot (Table 18, symbol D); assay type: in vivo, chinese sprangletop (Leptochloa chinensis)
Outline: (§3)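 Plants were sown in alluvial soil held under 0.1–0.5 cm standing water and grown 14 days in a greenhouse at 25–30 °C. An emulsifiable formulation, water-diluted to the set dose, was then sprayed onto the foliage, and effects were scored three weeks later using previously defined criteria.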

[4] = system: Italian ryegrass; assay: Test Example 5: herbicidal effect by foliage application, plastic box (Table 20, symbol K); assay type: in vivo, Italian ryegrass (Lolium multiflorum); conditions: foliage application, 320 g/ha, three weeks after application
Outline: as §1

[5] = system: wild oat; assay: Test Example 4: herbicidal effect by soil treatment (Table 19, symbol I); assay type: in vivo, wild oat (Avena fatua); conditions: amount of applied herbicide 320 g/ha
Outline: as §2

[6] = system: barnyard grass; assay: Test Example 5: herbicidal effect by foliage application, plastic box (Table 20, symbol H); assay type: in vivo, barnyard grass (Echinochloa crus-galli); conditions: foliage application, 320 g/ha, three weeks after application
Outline: as §1

[7] = system: southern crabgrass; assay: Test Example 5: herbicidal effect by foliage application, plastic box (Table 20, symbol F); assay type: in vivo, southern crabgrass (Digitaria ciliaris); conditions: foliage application, 320 g/ha, three weeks after application
Outline: as §1

[8] = system: velvetleaf; assay: Test Example 5: herbicidal effect by foliage application, plastic box (Table 20, symbol M); assay type: in vivo, velvetleaf (Abutilon theophrasti); conditions: foliage application, 320 g/ha, three weeks after application
Outline: as §1

[9] = system: green foxtail; assay: Test Example 4: herbicidal effect by soil treatment (Table 19, symbol G); assay type: in vivo, green foxtail (Setaria viridis); conditions: amount of applied herbicide 320 g/ha
Outline: as §2

[10] = system: rice flat sedge; assay: Test Example 3: herbicidal effect by foliage application, Wagner pot (Table 18, symbol E); assay type: in vivo, rice flat sedge (Cyperus iria)
Outline: as §3

[11] = system: Japanese bulrush; assay: Test Example 2: herbicidal activity, application during weed generation under submerged conditions (Table 17, symbol B); assay type: in vivo, Japanese bulrush (Schoenoplectus juncoides); conditions: AAH 320 g/ha; application during weed generation, submerged conditions
Outline: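 Wagner pot, alluvial soil, 4 cm flood; mixed sowing of all species; greenhouse 25° C.–30° C. Emulsifiable formulation, water-diluted to predetermined dose, applied to paddy water at 1–2 leaf stage. Effect rated at 3 wk using the earlier test's scoring criteria.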

[12] = system: oval-leafed pondweed; assay: Test Example 1: herbicidal activity, application before weed generation under submerged conditions (Table 16, symbol C); assay type: in vivo, oval-leafed pondweed (Monochoria vaginalis); conditions: amount of applied herbicide 320 g/ha
Outline: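 Submerged Wagner pots (alluvial soil, 4 cm water) sown with weed seeds and planted with 2.5-leaf rice seedlings; emulsifiable concentrate diluted in water applied to water surface on sowing day. Held in greenhouse at 25-30 °C; injury scored 0-5 by herbicidal rate after three weeks.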

[13] = system: blackgrass; assay: Test Example 5: herbicidal effect by foliage application, plastic box (Table 20, symbol J); assay type: in vivo, blackgrass (Alopecurus myosuroides); conditions: foliage application, 320 g/ha, three weeks after application
Outline: as §1

[14] = system: redroot pigweed; assay: Test Example 4: herbicidal effect by soil treatment (Table 19, symbol N); assay type: in vivo, redroot pigweed (Amaranthus retroflexus); conditions: amount of applied herbicide 320 g/ha
Outline: as §2

[15] = system: lambsquarters; assay: Test Example 5: herbicidal effect by foliage application, plastic box (Table 20, symbol O); assay type: in vivo, lambsquarters (Chenopodium album); conditions: foliage application, 320 g/ha, three weeks after application
Outline: as §1

[16] = system: southern crabgrass; assay: Test Example 4: herbicidal effect by soil treatment (Table 19, symbol F); assay type: in vivo, southern crabgrass (Digitaria ciliaris); conditions: amount of applied herbicide 320 g/ha
Outline: as §2

[17] = system: false cleavers; assay: Test Example 5: herbicidal effect by foliage application, plastic box (Table 20, symbol Q); assay type: in vivo, false cleavers (Galium spurium); conditions: foliage application, 320 g/ha, three weeks after application
Outline: as §1

[18] = amount of applied herbicide 320 g/ha

## COc1cc(F)ccc1-c1sc2cc(F)ccc2c1-c1c(O)c(C)nn(C)c1=O [3-009]
[1]
  I: wild oat, herbicidal effect grade: 5 (Herbicidal rate of 90% or more (almost completely withered))
[2]
  herbicidal effect, J: blackgrass: 4 (Herbicidal rate of 70% or more and less than 90%)
[3]; [18]
  herbicidal effect on D: Chinese sprangletop: 5 (Herbicidal rate of 90% or more (almost completely withered))
[4]
  K: Italian ryegrass, herbicidal effect grade: 5 (Herbicidal rate of 90% or more (almost completely withered))
[5]
  herbicidal effect, I: wild oat: 4 (Herbicidal rate of 70% or more and less than 90%)
[6]
  H: barnyard grass, herbicidal effect grade: 5 (Herbicidal rate of 90% or more (almost completely withered))
[7]
  F: southern crabgrass, herbicidal effect grade: 5 (Herbicidal rate of 90% or more (almost completely withered))
[8]
  M: velvetleaf, herbicidal effect grade: 5 (Herbicidal rate of 90% or more (almost completely withered))
[9]
  herbicidal effect, G: green foxtail: 4 (Herbicidal rate of 70% or more and less than 90%)
[10]; [18]
  herbicidal effect on E: rice flat sedge: 5 (Herbicidal rate of 90% or more (almost completely withered))
[11]
  herbicidal effect rating, B: Japanese bulrush: 1 (Herbicidal rate of 5% or more and less than 20%)
[12]
  Herbicidal effect, C: oval-leafed pondweed: 1 (Herbicidal rate of 5% or more and less than 20%)
[13]
  J: blackgrass, herbicidal effect grade: 5 (Herbicidal rate of 90% or more (almost completely withered))
[14]
  herbicidal effect, N: redroot pigweed: 5 (Herbicidal rate of 90% or more (almost completely withered))
[15]
  O: lambsquarters, herbicidal effect grade: 5 (Herbicidal rate of 90% or more (almost completely withered))
[16]
  herbicidal effect, F: southern crabgrass: 5 (Herbicidal rate of 90% or more (almost completely withered))
[17]
  Q: false cleavers, herbicidal effect grade: 5 (Herbicidal rate of 90% or more (almost completely withered))

## CCOc1cc(F)ccc1-c1sc2cc(C)ccc2c1-c1c(O)c(C)nn(C)c1=O [3-057]
[1]
  I: wild oat, herbicidal effect grade: 5 (Herbicidal rate of 90% or more (almost completely withered))
[2]
  J: blackgrass, herbicidal effect grade: 4 (Herbicidal rate of 70% or more and less than 90%)
[3]; 320 g/ha
  herbicidal effect on Chinese sprangletop (D): 3 (Herbicidal rate of 40% or more and less than 70%)
[4]
  K: Italian ryegrass, herbicidal effect grade: 5 (Herbicidal rate of 90% or more (almost completely withered))
[5]
  I: wild oat, herbicidal effect grade: 3 (Herbicidal rate of 40% or more and less than 70%)
[6]
  H: barnyard grass, herbicidal effect grade: 5 (Herbicidal rate of 90% or more (almost completely withered))
[7]
  F: southern crabgrass, herbicidal effect grade: 5 (Herbicidal rate of 90% or more (almost completely withered))
[8]
  M: velvetleaf, herbicidal effect grade: 5 (Herbicidal rate of 90% or more (almost completely withered))
[9]
  G: green foxtail, herbicidal effect grade: 4 (Herbicidal rate of 70% or more and less than 90%)
[10]; 320 g/ha
  herbicidal effect on rice flat sedge (E): 4 (Herbicidal rate of 70% or more and less than 90%)
[11]
  herbicidal effect rating, B: Japanese bulrush: 4 (Herbicidal rate of 70% or more and less than 90%)
[12]
  Herbicidal effect, C: oval-leafed pondweed: 5 (Herbicidal rate of 90% or more (almost completely withered))
[13]
  J: blackgrass, herbicidal effect grade: 5 (Herbicidal rate of 90% or more (almost completely withered))
[14]
  N: redroot pigweed, herbicidal effect grade: 5 (Herbicidal rate of 90% or more (almost completely withered))
[15]
  O: lambsquarters, herbicidal effect grade: 5 (Herbicidal rate of 90% or more (almost completely withered))
[16]
  F: southern crabgrass, herbicidal effect grade: 5 (Herbicidal rate of 90% or more (almost completely withered))
[17]
  Q: false cleavers, herbicidal effect grade: 5 (Herbicidal rate of 90% or more (almost completely withered))
